Assay results taken from PMC12517324, “Hyperagonism of a Vitamin D Receptor Agonist/Histone Deacetylase Inhibitor Hybrid Molecule” (Journal of Medicinal Chemistry, 2025).

Experiments:
HDAC 10 = molecular target: T1, HDAC 10 (Homo sapiens, UniProt Q969S8); assay: HDAC 10 inhibition (Reaction Biology, 10-dose IC50)
T1 sequence (Q969S8 1-669): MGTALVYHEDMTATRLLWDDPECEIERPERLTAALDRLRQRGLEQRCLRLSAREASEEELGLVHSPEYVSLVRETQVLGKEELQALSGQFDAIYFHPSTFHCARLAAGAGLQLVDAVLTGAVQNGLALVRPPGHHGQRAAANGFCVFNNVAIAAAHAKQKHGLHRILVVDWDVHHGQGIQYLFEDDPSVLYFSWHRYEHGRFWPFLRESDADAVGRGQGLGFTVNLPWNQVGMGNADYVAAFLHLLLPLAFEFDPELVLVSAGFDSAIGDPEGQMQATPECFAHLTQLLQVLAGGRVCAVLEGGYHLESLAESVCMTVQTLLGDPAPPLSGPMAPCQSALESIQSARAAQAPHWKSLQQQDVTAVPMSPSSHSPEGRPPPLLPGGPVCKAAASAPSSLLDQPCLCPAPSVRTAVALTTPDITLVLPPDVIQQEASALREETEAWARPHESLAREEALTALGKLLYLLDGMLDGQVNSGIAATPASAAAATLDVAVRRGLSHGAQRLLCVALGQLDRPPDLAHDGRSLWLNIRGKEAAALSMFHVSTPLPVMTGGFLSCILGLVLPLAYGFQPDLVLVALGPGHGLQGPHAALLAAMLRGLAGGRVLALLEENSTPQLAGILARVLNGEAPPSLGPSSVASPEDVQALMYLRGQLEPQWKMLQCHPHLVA

[1] = tested on: CYP24A1 in SK-MEL-28 cells; assay: CYP24A1 induction (RT-qPCR), extended dose–response in SK-MEL-28 cells; settings: SK-MEL-28 cells, 10 μM
[2] = tested on: Cyp24a1 gene in B16–F10 melanoma cells; assay: Cyp24a1 gene induction (RT-qPCR) as test of VDR agonism; format: cell-based, mouse; settings: hybrids 10 μM, 1,25D and SAHA 100 nM, 24 h
[3] = tested on: VDR target genes in B16-F10 cells; assay: RT-qPCR of selected VDR target genes (RNaseq validation); format: cell-based, mouse; settings: B16-F10, 24 h, compared with other treatments
Source text: The enhanced response of B16–F10 cells to AC-340 likely reflects the VDR hyperagonist activity observed in Cyp24a1 induction assay (Figure A). […] In 49 of 50 cases, AC-340 superinduced their expression, often several fold (Figure C), consistent with AC-340 being a broad hyperagonist of 1,25D-induced genes.
RNAseq data validation by RT-qPCR of selected VDR target genes in B16-F10
Fig. S4. Validation of the RNAseq data by RT-qPCR.

B16–F10 cells = assay: RNaseq gene expression profiling; format: cell-based, mouse; settings: 10 μM, 24 h
Procedure: AC-340 superinduced CYP24A1 expression in all cell lines tested, and ZG-126 appeared to be a hyperagonist in SK-MEL-28 cells. […] AC-340 treatment produced 3 times more differentially expressed genes (DEGs) than AM-193, with ZG-126 producing an intermediate number (Figure A). […] The varying effects of each treatment on the numbers of regulated genes and the fold changes observed are reflected in plots of log-fold changes and volcano plots (Figure S3B).
A quality control was performed before sequencing in paired-end at 50 M reads by Illumina NovaSeq 6000 S4 PE100. After sequencing, the FASTQ files were sent to us and all downstream analysis were performed on Galaxy (Galaxy (usegalaxy.org)). First, trimmomatic tool was used to remove the adapters from the reads. Then, using the alignment tool, HISAT2, the reads were mapped to the mouse genome. In the next step, the counted reads were annotated and finally the list of differentially expressed genes (DEGs) for each treatment was obtained using the preinstalled R package called Limma.

VDR = tested on: VDR; set-up: method as in earlier work; settings: efficacious and well-tolerated dose; ref (ref); cited from earlier work

Row | SMILES | IC50 (HDAC 10) [nM] | CYP24A1 induction (VDR hyperagonism) [1] | Cyp24a1 gene expression induction [2] | Prelp gene induction [3] | Tgm2 gene induction [3] | logFC Btn1a1 (B16–F10 cells) | logFC Cyp24a1 (B16–F10 cells) | logFC Elfn1 (B16–F10 cells) | logFC Nccrp1 (B16–F10 cells) | logFC Tnni1 (B16–F10 cells) | VDR agonist activity in vivo (VDR)
1 | Cn1cc(CNCC2CCN(c3ncc(C(=O)NO)cn3)CC2)c2ccccc21 [Quisinostat] | 4.52 | – | – | – | – | – | – | – | – | – | –
2 | CCC(CC)(c1ccc(C(=O)NCCCCC(=O)NO)cc1)c1ccc(OCC(O)C(C)(C)C)c(C)n1 (centres unmarked) [ZG-126] | – | displayed hyperagonism | more efficacious than 1,25D (and AM-193) | most efficacious inducer | most efficacious inducer | 8.367 | 8.537 | 7.8172 | 7.976 | 9.358 | displays VDR agonist activity in vivo
